Test results as given in publication PMC10004634 (PLOS ONE, 2023).

Tested on: TMD8 cells
Assay: SILAC phosphoproteomic analysis
Method: For differential SILAC encoding, both cells were grown in arginine- and lysine-deficient culture medium containing light (Arg0/Lys0) or heavy (Arg10/Lys8) isotopic forms of L-arginine and L-lysine (SILAC medium). […] For mass spectrometric analysis, phosphopeptide-enriched samples were loaded onto a reversed phase analytical column, resolved by an acetonitrile gradient using a nanoflow HPLC system and directly electrosprayed via a nanoelectrospray ion source into an LTQ-Orbitrap Velos mass spectrometer (Thermo Fisher Scientific). […] A false discovery rate (FDR) of 0.01 was selected for protein and peptide identification, and a posterior error probability of ≤0.1 for each peptide-to-spectral match was required. The resulting list of phosphosites exported from the MaxQuant software was filtered for class-I sites (only serine, threonine, or tyrosine assignments with a localization probability of ≥0.75) [33] and used for all subsequent biostatistical analysis. […] Gaussian regression analysis on the histogram plot of these log2-transformed ratios was performed using Sigmaplot (version 10.0; Systat Software Inc.). The obtained values for the mean and standard deviation across the whole quantitative dataset were used to determine thresholds for significant regulation of at least ±2.5 σ. […] Furthermore, only phosphosites conforming to this criterion and showing consistent regulation in both biological replicates were considered as regulated.

CC#CC(=O)N1CC[C@@H](n2c(=O)n(-c3ccc(Oc4ccccc4)cc3)c3c(N)ncnc32)C1 [Tirabrutinib]
reduction of ATF2 phosphorylation on Thr-69 (1 μM, 1 h): approximately 50% | reduction of ATF2 phosphorylation on Thr-71 (1 μM, 1 h): approximately 50% | number of downregulated phosphorylation sites (1 μM, 1 h, ratio <0.679): 138 | number of upregulated phosphorylation sites (1 μM, 1 h, ratio >1.472): 15 | Tirabrutinib/ctrl. rep. 1 (AKT1S1 S183): 0.69 | Tirabrutinib/ctrl. rep. 2 (AKT1S1 S183): 0.65 | Tirabrutinib/ctrl. rep. 1 (AKT1S1 S202): 1.29 | Tirabrutinib/ctrl. rep. 2 (AKT1S1 S202): 1.18 | Tirabrutinib/ctrl. rep. 1 (AKT1S1 S203): 1.16 | Tirabrutinib/ctrl. rep. 2 (AKT1S1 S203): 1.11 | Tirabrutinib/ctrl. rep. 1 (AKT1S1 S211): 0.98 | Tirabrutinib/ctrl. rep. 2 (AKT1S1 S211): 0.82 | Regulation of Phosphorylation Site (AKT1S1 T246): ↓ | Tirabrutinib/ctrl. rep. 1 (AKT1S1 T246): 0.61 | Tirabrutinib/ctrl. rep. 2 (AKT1S1 T246): 0.51 | Tirabrutinib/ctrl. rep. 1 (AKT1 S124): 0.97 | Tirabrutinib/ctrl. rep. 2 (AKT1 S124): 1.01 | Tirabrutinib/ctrl. rep. 1 (AKT1 S129): 1.07 | Tirabrutinib/ctrl. rep. 2 (AKT1 S129): 0.94 | Tirabrutinib/ctrl. rep. 1 (AKT2 S126): 0.95 | Tirabrutinib/ctrl. rep. 2 (AKT2 S126): 0.95 | Tirabrutinib/ctrl. rep. 1 (AKT2 T451): 1.00 | Tirabrutinib/ctrl. rep. 2 (AKT2 T451): 0.94 | Tirabrutinib/ctrl. rep. 1 (ATF2 S112): 1.07 | Tirabrutinib/ctrl. rep. 2 (ATF2 S112): 0.83 | Regulation of Phosphorylation Site (ATF2 T69): ↓ | Tirabrutinib/ctrl. rep. 1 (ATF2 T69): 0.53 | Tirabrutinib/ctrl. rep. 2 (ATF2 T69): 0.53 | Regulation of Phosphorylation Site (ATF2 T71): ↓ | Tirabrutinib/ctrl. rep. 1 (ATF2 T71): 0.50 | Tirabrutinib/ctrl. rep. 2 (ATF2 T71): 0.53 | Tirabrutinib/ctrl. rep. 1 (CARD11 S483): 0.72 | Tirabrutinib/ctrl. rep. 2 (CARD11 S483): 1.26 | Tirabrutinib/ctrl. rep. 1 (CARD11 S529): 0.89 | Tirabrutinib/ctrl. rep. 2 (CARD11 S529): 0.90 | Tirabrutinib/ctrl. rep. 2 (CARD11 S554): 0.79 | Tirabrutinib/ctrl. rep. 1 (CARD11 S610): 0.99 | Tirabrutinib/ctrl. rep. 2 (CARD11 S610): 0.96 | Tirabrutinib/ctrl. rep. 1 (CARD11 S622): 1.01 | Tirabrutinib/ctrl. rep. 2 (CARD11 S622): 1.05 | Tirabrutinib/ctrl. rep. 1 (CARD11 S903): 1.34 | Tirabrutinib/ctrl. rep. 2 (CARD11 S903): 1.37 | Tirabrutinib/ctrl. rep. 1 (CARD11 S942): 0.92 | Tirabrutinib/ctrl. rep. 2 (CARD11 S942): 0.78 | Regulation of Phosphorylation Site (ELK1 S501): ↓ | Tirabrutinib/ctrl. rep. 1 (ELK1 S501): 0.33 | Tirabrutinib/ctrl. rep. 2 (ELK1 S501): 0.48 | Regulation of Phosphorylation Site (ERF S327): ↓ | Tirabrutinib/ctrl. rep. 1 (ERF S327): 0.59 | Tirabrutinib/ctrl. rep. 2 (ERF S327): 0.50 | Tirabrutinib/ctrl. rep. 1 (ERF T526): 0.85 | Tirabrutinib/ctrl. rep. 2 (ERF T526): 0.87 | Regulation of Phosphorylation Site (ETV3 S245): ↓ | Tirabrutinib/ctrl. rep. 1 (ETV3 S245): 0.30 | Tirabrutinib/ctrl. rep. 2 (ETV3 S245): 0.28 | Regulation of Phosphorylation Site (ETV3 S250): ↓ | Tirabrutinib/ctrl. rep. 1 (ETV3 S250): 0.30 | Tirabrutinib/ctrl. rep. 2 (ETV3 S250): 0.28 | Tirabrutinib/ctrl. rep. 1 (HSP27 S15): 0.59 | Tirabrutinib/ctrl. rep. 2 (HSP27 S15): 1.31 | Tirabrutinib/ctrl. rep. 1 (HSP27 S78): 0.67 | Tirabrutinib/ctrl. rep. 2 (HSP27 S78): 0.69 | Regulation of Phosphorylation Site (HSP27 S82): ↓ | Tirabrutinib/ctrl. rep. 1 (HSP27 S82): 0.62 | Tirabrutinib/ctrl. rep. 2 (HSP27 S82): 0.60 | Tirabrutinib/ctrl. rep. 1 (IKBKG S455): 1.17 | Tirabrutinib/ctrl. rep. 2 (IKBKG S455): 0.97 | Regulation of Phosphorylation Site (MAPK1 Y187): ↓ | Tirabrutinib/ctrl. rep. 1 (MAPK1 Y187): 0.34 | Tirabrutinib/ctrl. rep. 2 (MAPK1 Y187): 0.47 | Regulation of Phosphorylation Site (MAPK3 Y204): ↓ | Tirabrutinib/ctrl. rep. 1 (MAPK3 Y204): 0.26 | Tirabrutinib/ctrl. rep. 2 (MAPK3 Y204): 0.42 | Tirabrutinib/ctrl. rep. 1 (NHE1 S693): 1.21 | Tirabrutinib/ctrl. rep. 2 (NHE1 S693): 1.00 | Regulation of Phosphorylation Site (NHE1 S703): ↓ | Tirabrutinib/ctrl. rep. 1 (NHE1 S703): 0.55 | Tirabrutinib/ctrl. rep. 2 (NHE1 S703): 0.51 | Tirabrutinib/ctrl. rep. 1 (NHE1 S785): 1.11 | Tirabrutinib/ctrl. rep. 2 (NHE1 S785): 1.29 | Tirabrutinib/ctrl. rep. 1 (NHE1 S796): 0.62 | Tirabrutinib/ctrl. rep. 2 (NHE1 S796): 0.78 | Tirabrutinib/ctrl. rep. 1 (PEA15 S82): 0.88 | Tirabrutinib/ctrl. rep. 2 (PEA15 S82): 0.96 | Regulation of Phosphorylation Site (PEA15 S137): ↓ | Tirabrutinib/ctrl. rep. 1 (PEA15 S137): 0.35 | Tirabrutinib/ctrl. rep. 2 (PEA15 S137): 0.29 | Tirabrutinib/ctrl. rep. 1 (PIK3AP1 S642): 0.94 | Tirabrutinib/ctrl. rep. 2 (PIK3AP1 S642): 1.03 | Tirabrutinib/ctrl. rep. 1 (PIK3AP1 S759): 0.83 | Tirabrutinib/ctrl. rep. 2 (PIK3AP1 S759): 0.69 | Tirabrutinib/ctrl. rep. 1 (PIK3AP1 T151): 1.07 | Tirabrutinib/ctrl. rep. 2 (PIK3AP1 T151): 1.02 | Regulation of Phosphorylation Site (PIK3AP1 Y570): ↓ | Tirabrutinib/ctrl. rep. 1 (PIK3AP1 Y570): 0.51 | Tirabrutinib/ctrl. rep. 2 (PIK3AP1 Y570): 0.41 | Tirabrutinib/ctrl. rep. 1 (PLCG2 S160): 0.86 | Tirabrutinib/ctrl. rep. 2 (PLCG2 S160): 1.09 | Tirabrutinib/ctrl. rep. 1 (PLCG2 S443): 0.84 | Tirabrutinib/ctrl. rep. 2 (PLCG2 S443): 1.41 | Tirabrutinib/ctrl. rep. 1 (PLCG2 Y753): 0.79 | Tirabrutinib/ctrl. rep. 2 (PLCG2 Y753): 0.55 | Regulation of Phosphorylation Site (PRKCB S241): ↑ | Tirabrutinib/ctrl. rep. 1 (PRKCB S241): 3.02 | Tirabrutinib/ctrl. rep. 2 (PRKCB S241): 1.76 | Tirabrutinib/ctrl. rep. 1 (PRKCB S673): 0.88 | Tirabrutinib/ctrl. rep. 2 (PRKCB S673): 0.60 | Tirabrutinib/ctrl. rep. 1 (PRKCB T500): 0.71 | Tirabrutinib/ctrl. rep. 2 (PRKCB T500): 1.08 | Tirabrutinib/ctrl. rep. 1 (PRKCB T641): 1.00 | Tirabrutinib/ctrl. rep. 2 (PRKCB T641): 1.01 | Tirabrutinib/ctrl. rep. 1 (PRKCB T642): 0.99 | Tirabrutinib/ctrl. rep. 2 (PRKCB T642): 1.92 | Tirabrutinib/ctrl. rep. 1 (PRKD2 S198): 0.55 | Tirabrutinib/ctrl. rep. 2 (PRKD2 S198): 0.69 | Regulation of Phosphorylation Site (PRKD2 S206): ↓ | Tirabrutinib/ctrl. rep. 1 (PRKD2 S206): 0.32 | Tirabrutinib/ctrl. rep. 2 (PRKD2 S206): 0.48 | Regulation of Phosphorylation Site (PRKD2 S214): ↓ | Tirabrutinib/ctrl. rep. 1 (PRKD2 S214): 0.46 | Tirabrutinib/ctrl. rep. 2 (PRKD2 S214): 0.48 | Regulation of Phosphorylation Site (PRKD2 S710): ↓ | Tirabrutinib/ctrl. rep. 1 (PRKD2 S710): 0.45 | Tirabrutinib/ctrl. rep. 2 (PRKD2 S710): 0.56 | Tirabrutinib/ctrl. rep. 1 (PRKD3 S31): 0.76 | Tirabrutinib/ctrl. rep. 2 (PRKD3 S31): 0.85 | Tirabrutinib/ctrl. rep. 1 (PRKD3 S213): 1.40 | Tirabrutinib/ctrl. rep. 2 (PRKD3 S213): 1.11 | Tirabrutinib/ctrl. rep. 1 (PRKD3 S364): 0.98 | Tirabrutinib/ctrl. rep. 2 (PRKD3 S364): 0.97 | Tirabrutinib/ctrl. rep. 1 (PRKD3 S395): 0.77 | Tirabrutinib/ctrl. rep. 2 (PRKD3 S395): 0.65 | Regulation of Phosphorylation Site (PRKD3 S735): ↓ | Tirabrutinib/ctrl. rep. 1 (PRKD3 S735): 0.41 | Tirabrutinib/ctrl. rep. 2 (PRKD3 S735): 0.43 | Regulation of Phosphorylation Site (RAF1 S1055): ↓ | Tirabrutinib/ctrl. rep. 1 (RAF1 S1055): 0.61 | Tirabrutinib/ctrl. rep. 2 (RAF1 S1055): 0.61 | Tirabrutinib/ctrl. rep. 1 (RELA S203): 0.85 | Tirabrutinib/ctrl. rep. 2 (RELA S203): 1.23 | Tirabrutinib/ctrl. rep. 1 (RELA S238): 0.84 | Tirabrutinib/ctrl. rep. 2 (RELA S238): 1.07 | Tirabrutinib/ctrl. rep. 1 (RPS6KA1 S230): 0.93 | Tirabrutinib/ctrl. rep. 2 (RPS6KA1 S230): 0.89 | Regulation of Phosphorylation Site (RPS6KA1 S741): ↓ | Tirabrutinib/ctrl. rep. 1 (RPS6KA1 S741): 0.61 | Tirabrutinib/ctrl. rep. 2 (RPS6KA1 S741): 0.59 | Tirabrutinib/ctrl. rep. 1 (RPS6KA1 T234): 0.93 | Tirabrutinib/ctrl. rep. 2 (RPS6KA1 T234): 0.96 | Tirabrutinib/ctrl. rep. 1 (TSC2 S1411): 1.07 | Tirabrutinib/ctrl. rep. 2 (TSC2 S1411): 1.15 | Tirabrutinib/ctrl. rep. 1 (TSC2 S1418): 1.12 | Tirabrutinib/ctrl. rep. 2 (TSC2 S1418): 1.10 | Tirabrutinib/ctrl. rep. 1 (TSC2 S1799): 1.15 | Tirabrutinib/ctrl. rep. 2 (TSC2 S1799): 0.89 | Regulation of Phosphorylation Site (YBX1 S102): ↓ | Tirabrutinib/ctrl. rep. 1 (YBX1 S102): 0.60 | Tirabrutinib/ctrl. rep. 2 (YBX1 S102): 0.46 | Tirabrutinib/ctrl. rep. 1 (YBX1 S165): 0.91 | Tirabrutinib/ctrl. rep. 2 (YBX1 S165): 0.96 | Tirabrutinib/ctrl. rep. 1 (YBX1 S167): 1.07
